Assay results published in patent publication EP0048614B1, “1-N-acylated and 1-N-alkylated derivatives of 4-0-substituted -2-deoxystreptamine aminoglycosides” (ELI LILLY AND COMPANY, priority 1980, dated 1982).
In brackets after ≈: the same amount, converted by molar mass. Several values for one entry are separate records, joined by “and”; a condition that tells them apart may be missing. Identical values can stand only once. Like-named read-outs stand apart in the source and are kept apart here.

Columns and labels:
B. subtilis X12 = assay: Bioautography of thin layer chromatography plate; assay type: cell-based; conditions: TLC plate of the reaction mixture against B. subtilis X12
Description: Apramycin (54 mg, 0.1 mmol) was dissolved in water (1 ml). Zinc acetate dihydrate (100 mg, 0.4 mmol) was added to this solution and the mixture was briefly sonicated to disperse crystals of zinc acetate. The ' mixture was diluted with dimethylformamide (5 ml), 1-iodo-n-butane (0.115 ml), 1 mmol) was added and this reaction mixture was stirred at room temperature for 4 days.

[1] = test system: Staphylococcus aureus 3055; assay: Subcutaneous therapy of experimental bacterial infection in mice (ED50); assay type: in vivo; conditions: Staphylococcus aureus, 3055, sc
Description: Table II illustrates the effective dose (ED50, the effective dose to protect 50 percent of the test animals) for representative compounds of this invention against an experimental bacterial infection in mice.
The ED50 values were determined as described by W. E. Wick et al., Journal of Bacteriology, 81 [No. 2], 233-235 (1961).

Escherichia coli X563 = assay: Standard disc-plate method, zone of inhibition against apramycin-resistant strain; assay type: cell-based; conditions: 15 mcg/disc; apramycin-resistant E. coli X563; one value for each of two test runs per compound; listed as 2
Text: Table III, shown below, illustrates the in vitro activity of 1-N-(S-y-amino-a-hydroxybutyryl)apramycin, 1-N-(RS-y-amino-a-hydroxybutyryl)apramycin, and 1-N-(S-y-amino-a-hydroxybutyryl)nebramine against an apramycin resistant strain of E. coli. The results below were obtained using the standard disc-plate method. The numerical values are the diameters in millimeters of the zones of inhibition observed against this bacterium. Compounds substituted with the y-amino-a-hydroxybutyryl and analogous side chains are useful in treating infections caused by apramycin resistant bacteria such as the one above.
The test organism (E. coli X563) used in the experiments summarized in Table III is resistant to apramycin due to a 3-N-acetyltransferase which enzymatically inactivates apramycin.

Proteus rettgeri PR7 = assay: MIC, standard agar dilution test; assay type: cell-based
Text: (§1) The antibacterial activity of the deprotected compounds of this invention is illustrated by the following in vitro and in vivo test data obtained with representative compounds. In Table I, the minimum inhibitory concentration (MIC) for representative compounds against a wide range of gram-positive and gram-negative bacteria is presented. The MIC values were obtained by the standard agar dilution test.

[2] = test system: Staphylococcus aureus X1.1; assay: MIC, standard agar dilution test; assay type: cell-based; conditions: Staphylococcus aureus X1.1, agar dilution
Text: as §1

Escherichia coli N10 = assay: MIC, standard agar dilution test; assay type: cell-based; conditions: agar dilution
Text: as §1

Serratia marcescens X99 = assay: MIC, standard agar dilution test; assay type: cell-based
Text: as §1

[3] = test system: Staphylococcus aureus X400; assay: MIC, standard agar dilution test; assay type: cell-based
Text: as §1

[4] = test system: Hemophilus influenzae C.L.; assay: MIC, standard agar dilution test; assay type: cell-based; conditions: Hemophilus influenzae C.L.
Text: as §1

Hemophilus influenzae 76 = assay: MIC, standard agar dilution test; assay type: cell-based
Text: as §1

[5] = test system: Enterobacter aerogenes X68; assay: MIC, standard agar dilution test; assay type: cell-based
Text: as §1

[6] = test system: Enterobacter aerogenes C32; assay: MIC, standard agar dilution test; assay type: cell-based; conditions: Klebsiella aerogenes; Enterobacter aerogenes C32; agar dilution; read-out: Minimum Inhibitory Concentration
Text: as §1

[7] = test system: Salmonella heidelberg X514; assay: MIC, standard agar dilution test; assay type: cell-based; conditions: Salmonella enterica; Salmonella heidelberg X514; agar dilution; read-out: Minimum Inhibitory Concentration
Text: as §1

Proteus morganii PR15 = assay: MIC, standard agar dilution test; assay type: cell-based; conditions: Morganella morganii; Proteus morganii PR15; agar dilution; read-out: Minimum Inhibitory Concentration
Text: as §1

[8] = test system: Streptococcus pyogenes C203; assay: MIC, standard agar dilution test; assay type: cell-based; conditions: Streptococcus pyogenes C203; agar dilution; read-out: Minimum Inhibitory Concentration
Text: as §1

[9] = test system: Streptococcus pneumoniae Park I; assay: MIC, standard agar dilution test; assay type: cell-based; conditions: Streptococcus pneumoniae Park I; agar dilution; read-out: Minimum Inhibitory Concentration
Text: as §1

[10] = test system: Klebsiella pneumoniae X26; assay: MIC, standard agar dilution test; assay type: cell-based; conditions: Klebsiella pneumoniae X26; agar dilution; read-out: Minimum Inhibitory Concentration
Text: as §1

[11] = test system: Enterobacter cloacae 265A; assay: MIC, standard agar dilution test; assay type: cell-based; conditions: Enterobacter cloacae 265A; agar dilution; read-out: Minimum Inhibitory Concentration
Text: as §1

[12] = test system: Citrobacter freundii CF17; assay: MIC, standard agar dilution test; assay type: cell-based; conditions: Citrobacter freundii CF17; agar dilution; read-out: Minimum Inhibitory Concentration
Text: as §1

Proteus inconstans PR33 = assay: MIC, standard agar dilution test; assay type: cell-based; conditions: Providencia alcalifaciens; Proteus inconstans PR33; agar dilution; read-out: Minimum Inhibitory Concentration
Text: as §1

[13] = test system: Salmonella typhimurium 1335; assay: MIC, standard agar dilution test; assay type: cell-based; conditions: Salmonella enterica; Salmonella typhimurium 1335; agar dilution; read-out: Minimum Inhibitory Concentration
Text: as §1

[14] = test system: Pseudomonas aeruginosa X239; assay: MIC, standard agar dilution test; assay type: cell-based; conditions: Pseudomonas aeruginosa X239; agar dilution; read-out: Minimum Inhibitory Concentration
Text: as §1

Escherichia coli EC14 = assay: MIC, standard agar dilution test; assay type: cell-based; conditions: Escherichia coli EC14; agar dilution; read-out: Minimum Inhibitory Concentration
Text: as §1

[15] = test system: Staphylococcus aureus V41; assay: MIC, standard agar dilution test; assay type: cell-based; conditions: Staphylococcus aureus V41; agar dilution; read-out: Minimum Inhibitory Concentration
Text: as §1

[16] = test system: Pseudomonas aeruginosa Ps18; assay: MIC, standard agar dilution test; assay type: cell-based; conditions: Pseudomonas aeruginosa Ps18; agar dilution; read-out: Minimum Inhibitory Concentration
Text: as §1

Escherichia coli TEM = assay: MIC, standard agar dilution test; assay type: cell-based; conditions: read-out: Minimum Inhibitory Concentration
Text: as §1

[17] = test system: Streptococcus group D 9960; assay: MIC, standard agar dilution test; assay type: cell-based; conditions: D9960; Streptococcus group D 9960; agar dilution; read-out: Minimum Inhibitory Concentration
Text: as §1

[18] = test system: Staphylococcus epidermidis EPI1; assay: MIC, standard agar dilution test; assay type: cell-based; conditions: Staphylococcus epidermidis EPI1; agar dilution; read-out: Minimum Inhibitory Concentration
Text: as §1

Shigella sonnei N9 = assay: MIC, standard agar dilution test; assay type: cell-based; conditions: read-out: Minimum Inhibitory Concentration
Text: as §1

[19] = test system: Staphylococcus epidermidis EPI2; assay: MIC, standard agar dilution test; assay type: cell-based; conditions: Staphylococcus epidermidis EPI2; agar dilution; read-out: Minimum Inhibitory Concentration
Text: as §1

[20] = test system: Klebsiella pneumoniae KAE; assay: MIC, standard agar dilution test; assay type: cell-based; conditions: Klebsiella pneumoniae KAE; agar dilution; read-out: Minimum Inhibitory Concentration
Text: as §1

[21] = test system: Bordetella bronchiseptica 16; assay: MIC, standard agar dilution test; assay type: cell-based; conditions: Bordetella bronchiseptica 16; agar dilution; read-out: Minimum Inhibitory Concentration
Text: as §1

[22] = test system: Staphylococcus aureus S13E; assay: MIC, standard agar dilution test; assay type: cell-based; conditions: read-out: Minimum Inhibitory Concentration
Text: as §1

Proteus rettgeri C24 = assay: MIC, standard agar dilution test; assay type: cell-based; conditions: Providencia rettgeri; Proteus rettgeri C24; agar dilution; read-out: Minimum Inhibitory Concentration
Text: as §1

Serratia marcescens SE3 = assay: MIC, standard agar dilution test; assay type: cell-based; conditions: Serratia marcescens SE3; agar dilution; read-out: Minimum Inhibitory Concentration
Text: as §1

[23] = test system: Pseudomonas aeruginosa X528; assay: MIC, standard agar dilution test; assay type: cell-based; conditions: Pseudomonas aeruginosa X528; agar dilution; read-out: Minimum Inhibitory Concentration
Text: as §1

[24] = test system: Enterobacter aerogenes EB17; assay: MIC, standard agar dilution test; assay type: cell-based; conditions: Klebsiella aerogenes; Enterobacter aerogenes EB17; agar dilution; read-out: Minimum Inhibitory Concentration
Text: as §1

[25] = test system: Streptococcus group D X66; assay: MIC, standard agar dilution test; assay type: cell-based; conditions: DX66; Streptococcus group D X66; agar dilution; read-out: Minimum Inhibitory Concentration
Text: as §1

Enterobacter cloacae EB5 = assay: MIC, standard agar dilution test; assay type: cell-based; conditions: Enterobacter cloacae EB5; agar dilution; read-out: Minimum Inhibitory Concentration
Text: as §1

C=CCNC1CC(N)C(OC2OC3C(CC2N)OC(OC2OC(CO)C(N)C(O)C2O)C(NC)C3O)C(O)C1O (stereo not drawn) [1-N-allylapramycin]
zone of inhibition (bioautography) (B. subtilis X12): good zone of inhibition

CNC1C(OC2OC(CO)C(N)C(O)C2O)OC2CC(N)C(OC3C(N)CC(NC(=O)C(O)CCN)C(O)C3O)OC2C1O (stereo not drawn)
ED50 ([1]; read-out: Effective Dose (ED50), mg/kg × 2 subcutaneous doses at 1 and 5 hours post infection, mice challenged with 331 LD50's): 7.1 mg/kg

NCC[C@H](O)C(=O)N[C@@H]1C[C@H](N)[C@@H](O[C@H]2O[C@H](CN)[C@@H](O)C[C@H]2N)[C@H](O)[C@H]1O
ED50 ([1]; mg/kg × 2 subcutaneous doses at 1 and 5 hours post infection, mice challenged with 1,794 LD50's, read-out: Effective Dose (ED50)): 8.75 mg/kg

CNC1C(OC2OC(CO)C(N)C(O)C2O)OC2CC(N)C(OC3C(N)CC(NC(=O)C(O)CCN)C(O)C3O)OC2C1O (stereo not drawn) [Test Compound 2, 1-N-(RS-γ-amino-α-hydroxybutyryl)apramycin]
Zone of Inhibition (diameter in mm) (Escherichia coli X563): 12.5 mm and 13.6 mm | Minimum Inhibitory Concentration (Proteus rettgeri PR7; Proteus rettgeri PR7): 4 µg/mL | Minimum Inhibitory Concentration [2]: 8 µg/mL | Minimum Inhibitory Concentration (Escherichia coli N10; Escherichia coli N10): 16 µg/mL | Minimum Inhibitory Concentration (Serratia marcescens X99; Serratia marcescens X99): 16 µg/mL | Minimum Inhibitory Concentration ([3]; Staphylococcus aureus X400): 64 µg/mL | Minimum Inhibitory Concentration [4]: 32 µg/mL | Minimum Inhibitory Concentration (Hemophilus influenzae 76; Hemophilus influenzae 76): 32 µg/mL | Minimum Inhibitory Concentration ([5]; Enterobacter aerogenes X68): 16 µg/mL

CCCCNC1CC(N)C(O)C(O)C1OC1OC2C(CC1N)OC(OC1OC(CO)C(N)C(O)C1O)C(NC)C2O (stereo not drawn) [3-N-(n-butyl)apramycin]
zone of inhibition (bioautography) (B. subtilis X12): not

CCCCNC1CC(N)C(OC2OC3C(CC2N)OC(OC2OC(CO)C(N)C(O)C2O)C(NC)C3O)C(O)C1O (stereo not drawn) [1-N-(n-butyl)apramycin]
zone of inhibition (bioautography) (B. subtilis X12): good zone of inhibition

NCC[C@H](O)C(=O)N[C@@H]1C[C@H](N)[C@@H](O[C@H]2O[C@H](CN)[C@@H](O)C[C@H]2N)[C@H](O)[C@H]1O [Test Compound 5, 1-N-(S-γ-amino-α-hydroxybutyryl)nebramine]
MIC [6]: 8 µg/mL (≈ 19.6 µM) | MIC [7]: 16 µg/mL (≈ 39.3 µM) | MIC (Proteus morganii PR15): 32 µg/mL (≈ 78.5 µM) | MIC (Proteus rettgeri PR7; Providencia rettgeri, Proteus rettgeri PR7, read-out: Minimum Inhibitory Concentration): 8 µg/mL (≈ 19.6 µM) | MIC ([2]; read-out: Minimum Inhibitory Concentration): 8 µg/mL (≈ 19.6 µM) | MIC [8]: 16 µg/mL (≈ 39.3 µM) | MIC [9]: 16 µg/mL (≈ 39.3 µM) | MIC [10]: 4 µg/mL (≈ 9.82 µM) | MIC [11]: 32 µg/mL (≈ 78.5 µM) | MIC [12]: 16 µg/mL (≈ 39.3 µM) | MIC (Proteus inconstans PR33): 8 µg/mL (≈ 19.6 µM) | MIC [13]: 8 µg/mL (≈ 19.6 µM) | MIC [14]: 32 µg/mL (≈ 78.5 µM) | MIC (Escherichia coli EC14): 16 µg/mL (≈ 39.3 µM) | MIC [15]: 8 µg/mL (≈ 19.6 µM) | MIC [16]: 32 µg/mL (≈ 78.5 µM) | MIC (Escherichia coli N10; Escherichia coli, N10, Escherichia coli N10, read-out: Minimum Inhibitory Concentration): 8 µg/mL (≈ 19.6 µM) | MIC (Escherichia coli TEM): 2 µg/mL (≈ 4.91 µM) | MIC [17]: > 128 µg/mL | MIC [18]: 8 µg/mL (≈ 19.6 µM) | MIC (Shigella sonnei N9): 16 µg/mL (≈ 39.3 µM) | MIC [19]: 4 µg/mL (≈ 9.82 µM) | MIC (Serratia marcescens X99; Serratia marcescens X99, read-out: Minimum Inhibitory Concentration): 8 µg/mL (≈ 19.6 µM) | MIC [20]: 8 µg/mL (≈ 19.6 µM) | MIC [21]: 32 µg/mL (≈ 78.5 µM) | MIC [22]: 8 µg/mL (≈ 19.6 µM) | MIC (Proteus rettgeri C24): 8 µg/mL (≈ 19.6 µM) | MIC ([3]; Staphylococcus aureus X400, read-out: Minimum Inhibitory Concentration): 64 µg/mL (≈ 157 µM) | MIC (Serratia marcescens SE3): 16 µg/mL (≈ 39.3 µM) | MIC ([4]; Haemophilus influenzae, read-out: Minimum Inhibitory Concentration): 16 µg/mL (≈ 39.3 µM) | MIC [23]: 64 µg/mL (≈ 157 µM) | MIC (Hemophilus influenzae 76; Haemophilus influenzae, Hemophilus influenzae 76, read-out: Minimum Inhibitory Concentration): 16 µg/mL (≈ 39.3 µM) | MIC [24]: 8 µg/mL (≈ 19.6 µM) | MIC [25]: > 128 µg/mL | MIC (Enterobacter cloacae EB5): 16 µg/mL (≈ 39.3 µM) | MIC ([5]; Klebsiella aerogenes, Enterobacter aerogenes X68, read-out: Minimum Inhibitory Concentration): 8 µg/mL (≈ 19.6 µM)

CNC1C(OC2OC(CO)C(N)C(O)C2O)OC2CC(N)C(OC3C(N)CC(NCc4ccccc4)C(O)C3O)OC2C1O (stereo not drawn) [1-N-benzylapramycin]
zone of inhibition (bioautography) (B. subtilis X12): zone of inhibition
